Biological target: EN PA (Influenza A virus, UniProt P15659)
Test: EN PA FRET Inhibition Assay
Format: biochemical
Settings: read-out: Potency

SMILES: CNC(=O)c1nn(-c2ccccc2-c2ccccc2OCC(C)C)cc(O)c1=O [Compound 630]
- IC50: 0.1 to 1 µM

SMILES: O=C(O)c1nn(-c2ccccc2N2CCCC2)cc(O)c1=O [Compound 200, 5-hydroxy-4-oxo-1-(2-(pyrrolidin-1-yl)phenyl)-1,4-dihydropyridazine-3-carboxylic acid]
- IC50: 0.1 to 1 µM

SMILES: O=C(O)c1nn(-c2ccccc2-c2ccc(F)cc2)cc(O)c1=O [Compound 306]
- IC50: 0.1 to 1 µM

SMILES: CNC(=O)c1nn(CC2(c3ccccc3)CCCC2)cc(O)c1=O [Compound 627]
- IC50: 0.1 to 1 µM

SMILES: CC1(C)CCCN(c2ccccc2-n2cc(O)c(=O)c(C(=O)O)n2)C1 [Compound 209]
- IC50: 0.1 to 1 µM

SMILES: COc1ccc(-c2ccccc2)cc1-n1cc(O)c(=O)c(C(=O)O)n1 [Compound 13]
- IC50: 0.1 to 1 µM

SMILES: CS(=O)(=O)c1ccc(-n2cc(O)c(=O)c(C(=O)O)n2)cc1 [Compound 31]
- IC50: 0.1 to 1 µM

SMILES: O=C(O)c1nn(-c2ccc3cn[nH]c3c2)cc(O)c1=O [Compound 33]
- IC50: 0.1 to 1 µM

SMILES: O=C(O)c1nn(-c2ccccc2-c2cccc3c2oc2ccccc23)cc(O)c1=O [Compound 316]
- IC50: 0.1 to 1 µM

SMILES: O=C(O)c1nn(-c2ccc3[nH]ncc3c2)cc(O)c1=O [Compound 42]
- IC50: 0.1 to 1 µM

SMILES: O=C(O)c1nn(-c2ccccc2C2CCNCC2)cc(O)c1=O [Compound 312]
- IC50: ≥ 1 µM

SMILES: Cc1ccc(C)c(-c2ccccc2-n2cc(O)c(=O)c(C(=O)O)n2)c1 [Compound 300, 1-(2′,5′-dimethylbiphenyl-2-yl)-5-hydroxy-4-oxo-1,4-dihydropyidazine-3-carboxylic acid]
- IC50: 0.1 to 1 µM

SMILES: CNC(=O)c1nn(-c2ccc3c(c2)OCCO3)cc(O)c1=O [Compound 601, 1,4-dihydro-1-(2,3-dihydrobenzo[b][1,4]dioxin-6-yl)-5-hydroxy-N-methyl-4-oxopyridazine-3-carboxamide]
- IC50: ≥ 1 µM

SMILES: CCOC(=O)c1nn(-c2ccccc2S(=O)(=O)c2ccccc2)cc(O)c1=O [Compound 44]
- IC50: ≥ 1 µM

SMILES: COc1cc(OC)cc(-n2cc(O)c(=O)c(C(=O)O)n2)c1 [Compound 26]
- IC50: 0.1 to 1 µM

SMILES: N#Cc1ccc(-c2ccccc2-n2cc(O)c(=O)c(C(=O)O)n2)cc1 [Compound 36]
- IC50: 0.1 to 1 µM

SMILES: O=C(O)c1nn(C2CCc3ccccc3C2=O)cc(O)c1=O (stereo not drawn) [Compound 418]
- IC50: 0.1 to 1 µM

SMILES: O=C(NCc1ccc(F)c(Cl)c1)c1nn(CC2(c3cccnc3)CCCC2)cc(O)c1=O [Compound 802]
- IC50: < 0.1 µM

SMILES: Cc1cn(C2(Cn3cc(O)c(=O)c(C(=O)O)n3)CCCC2)c2ncccc12 [Compound 425]
- IC50: 0.1 to 1 µM

SMILES: CCOC(=O)c1nn(CC2(c3cc(C(F)(F)F)cc(C(F)(F)F)c3)CCCC2)cc(O)c1=O [Compound 420]
- IC50: 0.1 to 1 µM

SMILES: COc1ccccc1-c1ccccc1-n1cc(O)c(=O)c(C(=O)O)n1 [Compound 315]
- IC50: 0.1 to 1 µM

SMILES: COc1cccc(CCn2cc(O)c(=O)c(C(=O)O)n2)c1 [Compound 414]
- IC50: < 0.1 µM

SMILES: O=C(NCc1ccccc1)c1nn(CC2(c3ccc(Cl)cc3)CCCC2)cc(O)c1=O [Compound 804]
- IC50: < 0.1 µM

SMILES: CNC(=O)c1nn(CCc2cccc3ccccc23)cc(OC(C)=O)c1=O [Compound 636]
- IC50: ≥ 1 µM

SMILES: O=C(O)c1nn(CC2(c3cc(C(F)(F)F)cc(C(F)(F)F)c3)CCCC2)cc(O)c1=O [Compound 419]
- IC50: < 0.1 µM

SMILES: CNC(=O)c1nn(-c2ccccc2-c2ccc3cc[nH]c3c2)cc(O)c1=O [Compound 521]
- IC50: ≥ 1 µM

SMILES: CC(C)COc1ccccc1-c1ccccc1-n1cc(O)c(=O)c(C(=O)O)n1 [Compound 325]
- IC50: < 0.1 µM

SMILES: O=C(O)c1nn(-c2ccccc2N2CCOCC2)cc(O)c1=O [Compound 41]
- IC50: 0.1 to 1 µM

SMILES: O=C(O)c1nn(-c2ccc(Oc3ccccc3)cc2)cc(O)c1=O [Compound 43]
- IC50: 0.1 to 1 µM

SMILES: CC(C)c1ccccc1-c1ccccc1-n1cc(O)c(=O)c(C(=O)O)n1 [Compound 39]
- IC50: 0.1 to 1 µM

SMILES: CC(C)(C)OC(=O)N1CCC(c2ccccc2-n2cc(O)c(=O)c(C(=O)O)n2)CC1 [Compound 304]
- IC50: ≥ 1 µM

SMILES: CNC(=O)c1nn(-c2ccccc2-c2cc(Cl)cc(OC)c2)cc(O)c1=O [Compound 629]
- IC50: ≥ 1 µM

SMILES: CC1CCN(c2ccccc2-n2cc(O)c(=O)c(C(=O)O)n2)CC1 [Compound 202]
- IC50: 0.1 to 1 µM

SMILES: COc1cccc(-c2ccccc2-n2cc(O)c(=O)c(C(=O)O)n2)c1 [Compound 318]
- IC50: 0.1 to 1 µM

SMILES: Cc1cc(F)ccc1-c1ccccc1-n1cc(O)c(=O)c(C(=O)O)n1 [Compound 305]
- IC50: 0.1 to 1 µM

SMILES: O=C(O)c1nn(-c2ccc(N3CCCCC3)cc2)cc(O)c1=O [Compound 28]
- IC50: ≥ 1 µM

SMILES: O=C(O)c1nn(-c2ccccc2CCO)cc(O)c1=O [Compound 29]
- IC50: 0.1 to 1 µM

SMILES: CNC(=O)c1nn(-c2ccccc2-c2ccccc2OC(F)(F)F)cc(O)c1=O [Compound 520]
- IC50: ≥ 1 µM

SMILES: CC(C)Cc1ccc(-c2ccccc2-n2cc(O)c(=O)c(C(=O)O)n2)cc1 [Compound 37]
- IC50: 0.1 to 1 µM

SMILES: CNC(=O)c1nn(CCc2cccc(C(F)(F)F)c2)cc(O)c1=O [Compound 608]
- IC50: ≥ 1 µM

SMILES: O=C(O)c1nn(-c2ccccc2OC(F)F)cc(O)c1=O [Compound 14]
- IC50: ≥ 1 µM

SMILES: CCOc1cc(C)cc(-c2ccccc2-n2cc(O)c(=O)c(C(=O)NC)n2)c1 [Compound 633]
- IC50: ≥ 1 µM

SMILES: Cc1ccccc1-c1ccccc1-n1cc(O)c(=O)c(C(=O)O)n1 [Compound 38]
- IC50: 0.1 to 1 µM

SMILES: O=C(O)c1nn(-c2ccccc2C2CCCCC2)cc(O)c1=O [Compound 308]
- IC50: 0.1 to 1 µM

SMILES: CC(C)(C)c1ccc(-c2ccccc2-n2cc(O)c(=O)c(C(=O)O)n2)cc1 [Compound 302]
- IC50: 0.1 to 1 µM

SMILES: CNC(=O)c1nn(-c2ccccc2-c2cc(C)ccc2OC(C)C)cc(O)c1=O [Compound 522]
- IC50: 0.1 to 1 µM

SMILES: CNC(=O)c1nn(-c2ccccc2N2CCN(C)CC2)cc(O)c1=O [Compound 600, 1,4-dihydro-5-hydroxy-N-methyl-1-(2-(4-methylpiperazin-1-yl)phenyl)-4-oxopyridazine-3-carboxamide]
- IC50: ≥ 1 µM

SMILES: Cc1cccc(C)c1-n1cc(O)c(=O)c(C(=O)O)n1 [Compound 12]
- IC50: 0.1 to 1 µM

SMILES: Cc1cccc(-c2ccccc2-n2cc(O)c(=O)c(C(=O)O)n2)c1C [Compound 309]
- IC50: ≥ 1 µM

SMILES: COc1cc(Cl)cc(-c2ccccc2-n2cc(O)c(=O)c(C(=O)O)n2)c1 [Compound 323]
- IC50: 0.1 to 1 µM

SMILES: O=C(O)c1nn(-c2ccc(C(F)(F)F)cc2)cc(O)c1=O [Compound 27]
- IC50: 0.1 to 1 µM

SMILES: COc1ccc(Cl)c(-c2ccccc2-n2cc(O)c(=O)c(C(=O)O)n2)c1 [Compound 322]
- IC50: 0.1 to 1 µM

SMILES: O=C(O)c1nn(-c2ccccc2-c2ccccc2Oc2ccccc2)cc(O)c1=O [Compound 311]
- IC50: < 0.1 µM

SMILES: CCN1CCN(c2ccccc2-n2cc(O)c(=O)c(C(=O)O)n2)CC1 [Compound 205]
- IC50: ≥ 1 µM

SMILES: CNC(=O)c1nn(CC2(c3cccc(Oc4ccccc4)c3)CCCC2)cc(O)c1=O [Compound 701]
- IC50: < 0.1 µM

SMILES: CC(C)(C)c1ccccc1-n1cc(O)c(=O)c(C(=O)O)n1 [Compound 16]
- IC50: 0.1 to 1 µM

SMILES: CCOc1ccccc1-n1cc(O)c(=O)c(C(=O)O)n1 [Compound 23]
- IC50: 0.1 to 1 µM

SMILES: Cc1cc(C)cc(-c2ccccc2-n2cc(O)c(=O)c(C(=O)O)n2)c1 [Compound 301]
- IC50: 0.1 to 1 µM

SMILES: NC(=O)c1nn(-c2ccccc2S(=O)(=O)c2ccccc2)cc(O)c1=O [Compound 617]
- IC50: ≥ 1 µM

SMILES: CC(C)(C)C1CCN(c2ccccc2-n2cc(O)c(=O)c(C(=O)O)n2)CC1 [Compound 208]
- IC50: 0.1 to 1 µM

SMILES: O=C(O)c1nn(-c2ccccc2-c2ccc(C(F)(F)F)cc2)cc(O)c1=O [Compound 307]
- IC50: 0.1 to 1 µM

SMILES: O=C(O)c1nn(-c2cccc(OC(F)(F)F)c2)cc(O)c1=O [Compound 30]
- IC50: ≥ 1 µM

SMILES: CN1CCN(c2ccccc2-n2cc(O)c(=O)c(C(=O)O)n2)CC1 [Compound 204]
- IC50: ≥ 1 µM

SMILES: O=C(NCc1ccc(F)c(Cl)c1)c1nn(CC2(c3ccc(F)c(F)c3)CCCC2)cc(O)c1=O [Compound 805]
- IC50: < 0.1 µM

SMILES: CC(C)(C)c1ccc(-n2cc(O)c(=O)c(C(=O)O)n2)cc1 [Compound 3, 1-(4-tert-butylphenyl)-5-hydroxy-4-oxo-1,4-dihydropyridazine-3-carboxylic acid]
- IC50: 0.1 to 1 µM

SMILES: Cc1ccc2cccc(-n3cc(O)c(=O)c(C(=O)O)n3)c2n1 [Compound 15]
- IC50: 0.1 to 1 µM

SMILES: CNC(=O)c1nn(-c2ccccc2-c2ccc3ccn(C)c3c2)cc(O)c1=O [Compound 618]
- IC50: ≥ 1 µM

SMILES: CC(C)c1ccccc1-n1cc(O)c(=O)c(C(=O)O)n1 [Compound 8]
- IC50: ≥ 1 µM

SMILES: O=C(O)c1nn(-c2ccccc2-c2ccc3cc[nH]c3c2)cc(O)c1=O [Compound 313]
- IC50: 0.1 to 1 µM

SMILES: CNC(=O)c1nn(-c2ccccc2N2CCc3ccccc32)cc(O)c1=O [Compound 632]
- IC50: ≥ 1 µM

SMILES: CNC(=O)c1nn(-c2ccccc2N2CCCC(C)(C)C2)cc(O)c1=O [Compound 616]
- IC50: ≥ 1 µM

SMILES: Cc1ccc(-c2ccccc2-n2cc(O)c(=O)c(C(=O)O)n2)cc1 [Compound 303]
- IC50: 0.1 to 1 µM

SMILES: O=C(O)c1nn(-c2ccc3c(c2)OCCO3)cc(O)c1=O [Compound 32]
- IC50: 0.1 to 1 µM

SMILES: O=C(NC1CC1)c1nn(CC2(c3cc(C(F)(F)F)cc(C(F)(F)F)c3)CCCC2)cc(O)c1=O [Compound 508]
- IC50: 0.1 to 1 µM

SMILES: O=C(O)c1nn(-c2ccccc2-c2ccccc2OC(F)(F)F)cc(O)c1=O [Compound 40]
- IC50: 0.1 to 1 µM

SMILES: COc1cccc(-n2cc(O)c(=O)c(C(=O)O)n2)c1 [Compound 5]
- IC50: 0.1 to 1 µM

SMILES: O=C(O)c1nn(-c2cc(C(F)(F)F)ccc2N2CCCC2)cc(O)c1=O [Compound 201]
- IC50: 0.1 to 1 µM

SMILES: CCCCNS(=O)(=O)c1cccc(-n2cc(O)c(=O)c(C(=O)O)n2)c1 [Compound 22]
- IC50: 0.1 to 1 µM

SMILES: CNC(=O)c1nn(-c2ccccc2-c2ccc3c(ccn3C)c2)cc(O)c1=O [Compound 620]
- IC50: ≥ 1 µM

SMILES: CCN1CCN(c2ccccc2-n2cc(O)c(=O)c(C(=O)NC)n2)CC1 [Compound 615]
- IC50: ≥ 1 µM

SMILES: O=C(NCc1ccc(F)c(Cl)c1)c1nn(CC2(c3ccc(Cl)cc3)CCCC2)cc(O)c1=O [Compound 803]
- IC50: < 0.1 µM

SMILES: CC(C)Oc1ccccc1-c1ccccc1-n1cc(O)c(=O)c(C(=O)O)n1 [Compound 310]
- IC50: 0.1 to 1 µM

SMILES: CCCCOc1ccc(-n2cc(O)c(=O)c(C(=O)O)n2)cc1 [Compound 25]
- IC50: ≥ 1 µM

SMILES: CNC(=O)c1nn(-c2ccccc2N2CCCc3ccccc32)cc(O)c1=O [Compound 628]
- IC50: ≥ 1 µM

Reference: patent publication US10364226B2, “Pyridazinone compounds and uses thereof” (priority 2013, dated 2019)
